Reference: patent US8962576B2, “Compositions and method for improving endothelial function and cardiovascular health” (Natreon, Inc., priority 2012, dated 2015)

Tests used:
Assay type in all cases: in vivo, human
platelet aggregation = assay: Inhibition of platelet aggregation using ADP as aggregant, study (c) subset (i); details: Clopidogrel 75 mg single dose Day 1, CAPROS 500 mg BD multiple dose Day 10, combination Day 11, n = 10
Description: The platelet aggregation was determined by the following procedure using Wheecon chronologue dual channel platelet aggregometer (Wheecon Instruments Pvt. Ltd., Chemai, Tamilnadu, India). The percentage decrease in platelet aggregation was recorded at baseline and 3 hours post treatment. Approximately 9 ml of blood sample was collected in a 10 ml plastic test tube containing 1 ml of 3.8% Sodium Citrate from the cubital vein of the subject at baseline and after 3 hours post treatment in all the groups. The test was performed immediately within a time period of one and half hours from collection. The samples were centrifuged at 800 rpm for 15 minutes to obtain a platelet-rich plasma. […] The readings were recorded at baseline and after treatment with ADP. The percentage aggregation at baseline and the percentage inhibition of platelet aggregation on post treatment with all the four treatments was calculated. […]
The effect of CAPROS® 500 mg BD (multiple dose study), Clopidogrel 75 mg (single dose study) and Capros 500 mg+Clopidogrel 75 mg on platelet function was determined by the following procedure using the dual channel platelet aggregometer instrument, as described above. The percentage aggregation at baseline and the percentage inhibition of platelet aggregation on post treatment with all the three treatments was calculated.

Type 2 Diabetic Subjects [1] = assay: Clotting time, Capillary Tube Method, study (c) subset (i); details: Table XIV-B, n = 10
Description: Clotting Time: Clotting time in seconds was recorded at baseline and at day 10, after 4 hrs post treatment in all the treatment groups by Capillary Tube Method. Normal Range-300-480 Sec.

Type 2 Diabetic Subjects [2] = assay: Bleeding time, Duke's Method, study (c) subset (i); details: Table XIV-A, n = 10
Description: Bleeding Time: Bleeding time in seconds was recorded at baseline and at day 10, after 4 hrs post treatment in all the treatment groups by Duke's Method. Normal Range: 60-180 Sec.

[3] = 4th Hr Post treatment, Clopidogrel 75 mg Day 1, CAPROS 500 mg BD Day 10, combination Day 11
[4] = Baseline, Clopidogrel 75 mg single dose, CAPROS 500 mg BD multiple dose, combination

Compound: COC(=O)[C@H](c1ccccc1Cl)N1CCc2sccc2C1 [CLOPIDOGREL, Clopidogrel]
- inhibition of platelet aggregation, Mean (platelet aggregation): 47.40%
- Bleeding Time, Mean (Type 2 Diabetic Subjects [1]; [3]): 249.5 s
- Bleeding Time, Mean (Type 2 Diabetic Subjects [1]; [4]): 207.5 s
- Bleeding Time, Mean (Type 2 Diabetic Subjects [2]; [3]): 97.30 s
- Bleeding Time, Mean (Type 2 Diabetic Subjects [2]; [4]): 84.40 s
